pIC50: −log10 of the molar value.
Experiments:
[1] = test system: cultured human mast cells (CHMC); assay: CHMC low cell density ionomycin activation: tryptase assay; type: cell-based; details: low cell density; read-out: CHMC Ionomycin Tryptase
[2] = test system: cultured human mast cells (CHMC); assay: CHMC low cell density IgE activation: tryptase assay; type: cell-based; details: low cell density; read-out: CHMC anti-IgE Tryptase
Procedure, shortened: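 Degranulation was triggered with anti-IgE for 30 minutes at 37° C in cultured human mast cells seeded at low density (1000-1500 cells/well, chosen by donor) after a 1 hr equilibration in MT buffer. Released tryptase in cleared supernatant was quantified with a tryptase substrate at room temperature for 30 minutes.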

Syk kinase = target: T1, Syk kinase (Homo sapiens, UniProt P43405); assay: Syk kinase biochemical fluorescence polarization assay; details: isolated Syk kinase, fluorescence polarization, 4 uM ATP
T1 construct: purchased Upstate, Lake Placid NY

[3] = test system: Human Jurkat T-cells (clone N); assay: Jurkat T-cell activation (anti-TCR, CD69 upregulation); type: cell-based
Procedure, shortened: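 Readout is CD69 upregulation by flow cytometry (anti-CD69-APC, 20 min at 4 °C) after 20 h anti-TCR (C305, 500 ng/ml) stimulation at 37 °C.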

Row | pIC50 [1] | pIC50 [2] | pIC50 (Syk kinase) | pIC50 [3] | Compound
1 | < 5.00 | 7.30 | 8.70 | – | O=C1Nc2cc(Nc3nc(Nc4cc(Cl)c(O)c(Cl)c4)ncc3F)ccc2OC1(F)F [Compound R927048]
2 | < 5.00 | 6.71 | 7.92 | – | CN(C)C(=O)C1Cc2cc(Nc3ncc(F)c(Nc4ccc5c(c4)NC(=O)C(F)(F)O5)n3)ccc2O1 (stereo not drawn) [Compound R926983]
3 | < 5.00 | 6.64 | 6.25 | – | COc1c(C)cc(Nc2ncc(F)c(Nc3ccc4c(c3)-n3ccnc3CO4)n2)cc1Cl [Compound R935418]
4 | 4.52 | 6.38 | 6.12 | – | Fc1cnc(Nc2ccc3cc[nH]c3c2)nc1Nc1ccc(Cl)c(Cl)c1 [Compound R926975]
5 | 5.22 | 7.10 | 7.39 | – | C[C@@H]1Oc2ccc(Nc3ncc(F)c(Nc4ccc5c(c4)NC(=O)[C@H](C)O5)n3)cc2NC1=O [Compound R908952]
6 | < 5.00 | 6.95 | 7.23 | – | CNC(=O)COc1cccc(Nc2ncc(F)c(Nc3cc(C)c(O)c(Cl)c3)n2)c1 [Compound R945366]
7 | – | 6.47 | 5.93 | – | CC1(C)C(=O)NC(=O)c2cc(Nc3nc(Nc4ccc5cn[nH]c5c4)ncc3F)ccc21 [Compound R908956]
8 | – | 7.24 | 7.19 | – | COC(=O)Cn1ncc2cc(Nc3ncc(F)c(Nc4ccc5c(c4)NC(=O)C(C)(C)O5)n3)ccc21 [Compound R935436]
9 | < 5.00 | 7.44 | 8.15 | – | O=C1Nc2cc(Nc3nc(Nc4ccc5cc[nH]c5c4)ncc3F)ccc2OC1(F)F [Compound R926977]
10 | 5.06 | 6.55 | 6.22 | – | COc1cc(Nc2ncc(F)c(Nc3cccc(N)n3)n2)cc(OC)c1 [Compound R927077]
11 | < 5.00 | 6.86 | 8.00 | – | COc1ccc(Nc2ncc(F)c(Nc3ccc4c(c3)NC(=O)C(F)(F)O4)n2)cc1Cl [Compound R926981]
12 | 4.85 | 6.93 | 7.89 | – | CC1(C)Oc2ccc(Nc3ncc(F)c(Nc4ccc5c(c4)NC(=O)C(F)(F)O5)n3)cc2NC1=O [Compound R940367]
13 | < 5.00 | – | 8.15 | – | COc1cc(Nc2ncc(F)c(Nc3ccc4c(n3)NC(=O)CO4)n2)cc(OC)c1 [Compound R945401]
14 | 4.52 | 6.79 | 6.98 | – | COc1ccc(Nc2ncc(F)c(Nc3ccc4c(c3)NC(=O)[C@H](C)O4)n2)cc1Cl [Compound R909321]
15 | – | 6.69 | 6.60 | – | CNC(=O)COc1cccc(Nc2ncc(F)c(Nc3cccc(N)n3)n2)c1 [Compound R927080]
16 | – | 5.47 | 4.71 | – | CC1(C)Oc2ccc(Nc3nc(Nc4cccc(Cl)c4)ncc3F)nc2NC1=O [Compound R940386]
17 | 5.29 | 6.65 | 6.21 | – | COc1cc(Nc2ncc(F)c(Nc3ccc(Cl)c(Cl)c3)n2)cc(OC)c1 [Compound R927060]
18 | – | 7.28 | 6.29 | – | COC(=O)N1CCN(c2ccc(Nc3ncc(F)c(Nc4ccc5c(n4)NC(=O)C(C)(C)O5)n3)cc2)CC1 [Compound R945416]
19 | – | 6.62 | 6.82 | – | NC1CCOc2ccc(Nc3nc(Nc4ccc(Cl)c(Cl)c4)ncc3F)cc21 (racemic) [Compound R950430]

Row | pIC50 [1] | pIC50 [2] | pIC50 (Syk kinase) | pIC50 [3] | Compound
20 | – | 6.90 | 6.90 | – | CC(=O)N1CCN(c2ccc(Nc3ncc(F)c(Nc4ccc5c(n4)NC(=O)C(C)(C)O5)n3)cc2)CC1 [Compound R945419]
21 | 5.38 | 6.85 | 6.69 | – | O=C1Nc2cc(Nc3nc(Nc4cc(Cl)cc(Cl)c4)ncc3F)ccc2OC1(F)F [Compound R926985]
22 | 4.90 | – | 8.00 | – | CC1(C)Oc2ccc(Nc3nc(Nc4cc(Cl)c(O)c(Cl)c4)ncc3F)cc2NC1=O [Compound R927051]
23 | 4.79 | 6.97 | 7.15 | – | CNC(=O)CCn1ncc2cc(Nc3ncc(F)c(Nc4ccc5c(c4)NC(=O)C(C)(C)O5)n3)ccc21 [Compound R935433]
24 | < 5.00 | – | < 5.00 | – | CCN(C(C)=O)c1ccc(Nc2ncc(F)c(Nc3ccc4c(n3)NC(=O)C(C)(C)O4)n2)cc1 [Compound R945418]
25 | – | 6.59 | 6.52 | – | CN1CCN(c2ccc(Nc3ncc(F)c(Nc4ccc5c(n4)NC(=O)CO5)n3)cc2)CC1 [Compound R945426]
26 | 5.33 | 6.90 | 6.80 | – | COc1c(Cl)cc(Nc2ncc(F)c(Nc3ccc4c(c3)NC(=O)C(F)(F)O4)n2)cc1Cl [Compound R927061]
27 | < 5.00 | 6.78 | 6.34 | – | COc1cc(Nc2ncc(F)c(Nc3ccc4c(c3)NC(=O)C(F)(F)O4)n2)cc(C(F)(F)F)c1 [Compound R926984]
28 | – | 4.98 | < 5.00 | – | N[C@@H]1CCCC[C@H]1Nc1ncc(F)c(Nc2cc(Cl)cc(Cl)c2)n1 [Compound R950440]
29 | – | 6.55 | 6.32 | – | CN1CCN(c2ccc(Nc3ncc(F)c(Nc4ccc5c(n4)NC(=O)C(C)(C)O5)n3)cc2)CC1 [Compound R945427]
30 | < 5.00 | 6.93 | 8.05 | – | O=C1COc2ccc(Nc3nc(Nc4cccc(OCC(=O)NC5CC5)c4)ncc3F)nc2N1 [Compound R945390]
31 | – | 7.09 | 6.90 | – | CNC(=O)Cn1ncc2cc(Nc3ncc(F)c(Nc4ccc5c(c4)NC(=O)C(C)(C)O5)n3)ccc21 [Compound R935437]
32 | – | 5.92 | < 5.00 | – | CC1(C)Oc2ccc(Nc3nc(Nc4cc(Cl)cc(Cl)c4)ncc3F)nc2NC1=O [Compound R940387]
33 | < 5.00 | 5.60 | < 5.00 | – | CC(=O)N(C)c1ccc(Nc2ncc(F)c(Nc3ccc4c(n3)NC(=O)C(C)(C)O4)n2)cc1 [Compound R945417]
34 | – | 6.91 | 6.88 | – | CCOC(=O)CCn1ncc2cc(Nc3ncc(F)c(Nc4ccc5c(c4)NC(=O)C(C)(C)O5)n3)ccc21 [Compound R935431]
35 | < 5.00 | 7.07 | 7.85 | – | COC(=O)N1CCN(c2ccc(Nc3ncc(F)c(Nc4ccc5c(n4)NC(=O)CO5)n3)cc2)CC1 [Compound R945392]
36 | – | 7.02 | 6.51 | – | O=C1COc2ccc(Nc3nc(Nc4ccc(N5CCOCC5)cc4)ncc3F)nc2N1 [Compound R945412]
37 | – | 5.77 | < 5.00 | – | CC(C)Oc1ccc(Nc2ncc(F)c(Nc3ccc4c(n3)NC(=O)CO4)n2)cc1 [Compound R945413]
38 | – | 6.78 | 6.71 | – | COc1cc(Nc2nc(Nc3ccc4cn[nH]c4c3)ncc2F)ccc1F [Compound R935416]

Row | pIC50 [1] | pIC50 [2] | pIC50 (Syk kinase) | pIC50 [3] | Compound
39 | < 5.00 | 7.13 | 7.46 | – | O=C1COc2ccc(Nc3nc(Nc4cccc(OCC(=O)NC5CCC5)c4)ncc3F)nc2N1 [Compound R945389]
40 | < 5.00 | 6.59 | 6.51 | – | COc1ccc(Nc2ncc(F)c(Nc3cccc(N)n3)n2)cc1Cl [Compound R927082]
41 | – | 6.73 | 6.18 | – | CC1(C)Oc2ccc(Nc3nc(Nc4cccc(OCC(=O)NC5CCC5)c4)ncc3F)nc2NC1=O [Compound R945424]
42 | – | 6.69 | 6.82 | – | Fc1cc(Nc2nc(Nc3ccc4cn[nH]c4c3)ncc2F)ccc1Cl [Compound R935414]
43 | < 5.00 | 7.34 | 9.00 | – | O=C1Nc2cc(Nc3nc(Nc4ccc5cn[nH]c5c4)ncc3F)ccc2OC1(F)F [Compound R940364]
44 | – | 6.60 | 6.63 | 5.69 | COc1ccc(Nc2nc(Nc3cc(C)c(O)c(Cl)c3)ncc2F)cc1Cl [Compound R926968]
45 | – | 5.96 | 5.67 | – | CC(=O)N1CCN(c2ccc(Nc3ncc(F)c(NC4CCC4)n3)cc2)CC1 [Compound R945385]
46 | < 5.00 | < 5.00 | < 5.00 | – | CC1(C)Oc2ccc(Nc3nc(Nc4ccc(OC(F)(F)F)c(Cl)c4)ncc3F)nc2NC1=O [Compound R940390]
47 | – | < 5.00 | 4.75 | – | COc1c(Cl)cc(Nc2ncc(F)c(Nc3ccc4c(n3)NC(=O)CO4)n2)cc1Cl [Compound R945400]
48 | 5.80 | 7.60 | 9.00 | – | Cn1ncc2ccc(Nc3ncc(F)c(Nc4ccc5c(c4)NC(=O)C(F)(F)O5)n3)cc21 [Compound R940368]
49 | < 5.00 | 6.79 | 6.78 | – | COc1ccc(Nc2ncc(F)c(Nc3ccc4c(n3)NC(=O)CO4)n2)cc1Cl [Compound R945399]
50 | – | 5.15 | 6.74 | – | O=C1COc2ccc(Nc3nc(Nc4ccc(Cl)c(Cl)c4)ncc3F)nc2N1 [Compound R945398]
51 | – | 6.99 | < 5.00 | – | COc1ccc(Nc2ncc(F)c(Nc3ccc4c(n3)NC(=O)CO4)n2)cc1 [Compound R945404]
52 | – | 6.98 | 6.84 | – | CC1(C)Oc2ccc(Nc3nc(Nc4cccc(O)c4)ncc3F)nc2NC1=O [Compound R940382]
53 | – | 6.95 | 6.38 | – | COc1ccc(Nc2ncc(F)c(Nc3ccc4c(n3)NC(=O)CO4)n2)cc1F [Compound R945402]
54 | – | 6.56 | 6.37 | – | Cc1cc(C)cc(Nc2ncc(F)c(Nc3ccc4c(n3)NC(=O)C(C)(C)O4)n2)c1 [Compound R945433]
55 | – | 7.03 | 6.60 | – | COc1cc(Nc2ncc(F)c(Nc3ccc4c(n3)NC(=O)C(C)(C)O4)n2)cc(OC)c1 [Compound R940372]
56 | – | 6.50 | 5.44 | – | COc1ccc(Nc2ncc(F)c(Nc3ccc4c(n3)NC(=O)C(C)(C)O4)n2)cc1Cl [Compound R940371]
